Results: patent US12544375B2, “Small molecule therapeutic for parkinson's disease paired with a biomarker of therapeutic activity” (The Board of Trustees of the Leland Stanford Junior …, priority 2019, dated 2026)

Target: T1, Miro2 (Homo sapiens, UniProt Q8IXI1)
T1 construct: Miro1 Reducer had no influence on Miro2 in either healthy or PD cells; endogenous in cells; host or cells: human skin fibroblasts (Healthy-1, PD-2)
Experiment: Miro2 response to CCCP in fibroblasts, Western blotting
Format: cell-based
Conditions: healthy or PD cells, CCCP 6 hrs
Description: FIG. 2A-FIG. 2F. Miro1 Reducer Eliminates the Miro1 Defect in PD Fibroblasts. (FIG. 2A) Chemical properties of Miro1 Reducer. (FIG. 2B) Wild-type flies (w^1118) were fed with DMSO alone (0 μM Miro1 Reducer) or Miro1 Reducer in DMSO at 250 μM for 7 days, and lysed and blotted as indicated. The band intensities are normalized to those of Tubulin from the same blots. n=4. (FIG. 2C-FIG. 2E) Fibroblasts were treated, lysed, and blotted as indicated. (FIG. 2C) Band intensities are normalized to those of GAPDH from the same blots and compared to “Healthy-1, no treatment” except otherwise indicated. n=4. (FIG. 2D) Band intensities are normalized to those of ATP5β from the same blots and expressed as a percentage of the mean of “0 μM Miro1 Reducer with CCCP”. Mean±S.E.M is shown. n=3. (FIG. 2E) Band intensities are normalized to those of GAPDH from the same blots and compared to “Healthy-1, no CCCP, no MG132” except otherwise indicated. n=4. (FIG. 2F) Healthy-1 and PD-2 fibroblasts were transfected as indicated, and immunostained with anti-Myc (Miro1, green) and stained with Dapi (blue). The Miro1 intensity is normalized to that of mito-dsRed from the same cell and quantified across 37-62 cells from 5 fields each transfection, 3 independent transfections. Scale bars: 50 μm. For (FIG. 2C-FIG. 2F), both CCCP and Miro1 Reducer were dissolved in DMSO. […]

T1 sequence (Q8IXI1 whole entry): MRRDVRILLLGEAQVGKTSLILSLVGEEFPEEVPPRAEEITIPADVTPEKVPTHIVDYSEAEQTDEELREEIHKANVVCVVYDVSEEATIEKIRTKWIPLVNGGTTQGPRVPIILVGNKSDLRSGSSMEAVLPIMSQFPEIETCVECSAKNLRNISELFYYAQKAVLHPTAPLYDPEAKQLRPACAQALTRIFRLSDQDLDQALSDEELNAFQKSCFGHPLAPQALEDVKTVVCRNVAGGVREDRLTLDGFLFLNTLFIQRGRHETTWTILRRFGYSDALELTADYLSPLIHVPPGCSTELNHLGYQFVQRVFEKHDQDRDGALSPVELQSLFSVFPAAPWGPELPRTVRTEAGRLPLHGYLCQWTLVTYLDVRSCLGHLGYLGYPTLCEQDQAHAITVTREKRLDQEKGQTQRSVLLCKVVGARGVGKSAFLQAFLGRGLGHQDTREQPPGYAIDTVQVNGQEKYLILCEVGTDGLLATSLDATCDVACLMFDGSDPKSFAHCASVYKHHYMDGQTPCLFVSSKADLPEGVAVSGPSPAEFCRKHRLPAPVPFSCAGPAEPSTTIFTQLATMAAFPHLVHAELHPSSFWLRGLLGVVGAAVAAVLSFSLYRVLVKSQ

In the case of O=C(Nc1ccc(Nc2cc(-n3ccnc3)ncn2)cc1)Nc1cccc(F)c1 [Miro1 Reducer], the “influence on Miro2” value is reported as “no influence”.
